Source: patent US20130324598A1, “TREATING MYCOBACTERIAL INFECTION WITH CU+/++ BOOSTING THERAPEUTICS” (priority 2011, published 2013)
Like-named read-outs stand apart in the source and are kept apart here.

Tests used:
[1] = test system: M. tuberculosis (mc^26230); format: cell-based, Mycobacterium tuberculosis
[2] = test system: macrophages; test: Toxicity of GTSM and ATSM towards macrophages (50% reduction in viability); format: cell-based
From the text: Fluorescence intensity was a measure of cell viability and was shown as percent of viability of untreated cells that were not exposed to GTSM-Cu or ATSM-Cu. The inhibitory concentration (IC50) was estimated based on the shape of the curve, and indicates the concentration at which a 50% decrease in viability is observed, and the therapeutic index was estimated based on the lethal dose (LD50) of these compounds for macrophages, which indicates a 50% reduction in viability. The LD50 of GTSM towards macrophages, the main residential cell type for M. tuberculosis, is 10 μM. […] The therapeutic index calculates as TI=LD50/IC50

[3] = concentrations higher than 10 μM could not be tested

With `CNC1=NN=C(C)C(C)=NN=C(NC)[S][Cu][S]1` [ATSM-Cu complex] the “activity against Mycobacterium tuberculosis” value ([1]; copper complex, FIG. 5 / FIG. 6) was “active”.
With `CNC(=S)NN=CC=NNC(=S)NC` [GTSM] the “therapeutic index (TD50/IC50; TI=LD50/IC50)” value ([1]; […], copper complex, estimated) was 25, the “Mycobacterium tuberculosis cell viability” value ([1]; complexed with copper, 10 μM copper, fluorescence 12 hours after AlamarBlue addition) was “decreased significantly” and the LD50 towards macrophages ([2]; 50% reduction in viability of macrophages) was 10 µM.
With `CNC(=S)N/N=C(C)/C(C)=N/NC(=S)NC` [ATSM] the “Mycobacterium tuberculosis cell viability” value [1] was “decreased significantly”, the toxicity towards macrophages ([2]; up to 10 μM) was “did not show any toxicity” and the solubility [3] was “limited solubility”.
